This is an account of results in patent publication US12398154B2, “Azaquinazoline pan-KRas inhibitors” (Mirati Therapeutics, Inc., priority 2020, dated 2025).

The subject of test [1] is pERK in ASPC1 cells. The test is described as follows: Inhibition of KRas phosphorylation of ERK (Cisbio HTRF pERK assay). The following applies: Homo sapiens, ASPC1, read-out: Inhibition (HTRF IC50) of KRas-mediated Phosphorylation of ERK, AsPC-1. For orientation: In TR-FRET formats the signal depends on donor and acceptor labels being close together.
Test [2] concerns the target KRas G12V (Homo sapiens, UniProt P01116, G12V). The test is described as follows: biochemical.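 Note: KRas binding measured by TR-FRET displacement at room temperature, IC50 fitted from percent of control values.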
Procedure: (§1) The ability of a compound to bind to KRas was measured using a TR-FRET displacement assay. […] After a 60-minute incubation at room temperature, the reaction was measured using a BMG LABTECH CLARIO star Plus via TR-FRET. […] The POC values were fit to a 4-parameter IC50 equation and the IC50 value reported.
Test [3] concerns the target KRas G12R (Homo sapiens, UniProt P01116, G12R). The test is described as follows: biochemical.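 Note: TR-FRET displacement assay of compound binding to KRas, read after one hour at room temperature, potency from a four-parameter fit of percent-of-control values.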
Procedure: as §1
Test [4] concerns the target KRas G12D (Homo sapiens, UniProt P01116, G12D). The test can be described thus: biochemical.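 Note: TR-FRET displacement binding assay on KRas, read after a one-hour incubation at room temperature, IC50 fitted from percent-of-control values.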
Procedure: as §1
In test [5] the test system is pERK in MKN1 cells. The test can be described thus: Inhibition of KRas phosphorylation of ERK (Cisbio HTRF pERK assay). The following applies: Homo sapiens, MKN-1, 3 h, read-out: Inhibition (HTRF IC50) of KRas-mediated Phosphorylation of ERK, MKN1.
Test [6] deals with pERK in PSN1 cells. The test is described as above. The following applies: Homo sapiens, PSN1, 3 h, read-out: Inhibition (HTRF IC50) of KRas-mediated Phosphorylation of ERK, PSN1.
Test [7] has as its target KRas G12S (Homo sapiens, UniProt P01116, G12S). The test is described as follows: biochemical.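 Note: TR-FRET displacement binding to KRas, read after one hour incubation at room temperature, IC50 from four-parameter fit of percent of control.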
Procedure: as §1
The target in test [8] is KRas G12A (Homo sapiens, UniProt P01116, G12A). The test is described as follows: biochemical.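 Note: binding to KRas measured by TR-FRET displacement after one hour at room temperature, IC50 from a four-parameter fit of percent-of-control values.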
KRas G12A, sequence (P01116 1-169 isoform P01116-2 G12A): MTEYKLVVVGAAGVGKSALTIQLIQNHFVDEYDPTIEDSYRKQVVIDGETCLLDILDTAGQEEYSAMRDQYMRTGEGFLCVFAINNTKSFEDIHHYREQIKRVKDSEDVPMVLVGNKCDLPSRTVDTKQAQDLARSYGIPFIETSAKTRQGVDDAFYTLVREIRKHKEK
Procedure: as §1
Test [9] concerns the target KRas WT (Homo sapiens, UniProt P01116). The test can be described thus: biochemical.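 Note: binding to KRas read as TR-FRET displacement after a one-hour room-temperature incubation, IC50 derived from percent-of-control values.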
Procedure: as §1
The target in test [10] is KRas G12C (Homo sapiens, UniProt P01116, G12C). The test can be described thus: biochemical.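 Note: binding to KRas assessed by TR-FRET displacement after one hour incubation at room temperature, potency fitted from percent-of-control values.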
KRas G12C, sequence (P01116 1-169 isoform P01116-2 G12C): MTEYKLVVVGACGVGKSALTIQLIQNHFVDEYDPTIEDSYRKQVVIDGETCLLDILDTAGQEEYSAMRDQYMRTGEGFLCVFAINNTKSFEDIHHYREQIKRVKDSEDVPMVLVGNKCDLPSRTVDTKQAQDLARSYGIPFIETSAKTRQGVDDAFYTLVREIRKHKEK
Procedure: as §1

KRas G12D, sequence (P01116 1-169 isoform P01116-2 G12D): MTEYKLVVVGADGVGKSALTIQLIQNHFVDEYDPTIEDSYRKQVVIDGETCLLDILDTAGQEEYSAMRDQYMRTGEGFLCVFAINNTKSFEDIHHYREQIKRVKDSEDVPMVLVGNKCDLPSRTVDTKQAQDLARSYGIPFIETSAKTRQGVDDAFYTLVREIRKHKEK
KRas G12S, sequence (P01116 1-169 isoform P01116-2 G12S): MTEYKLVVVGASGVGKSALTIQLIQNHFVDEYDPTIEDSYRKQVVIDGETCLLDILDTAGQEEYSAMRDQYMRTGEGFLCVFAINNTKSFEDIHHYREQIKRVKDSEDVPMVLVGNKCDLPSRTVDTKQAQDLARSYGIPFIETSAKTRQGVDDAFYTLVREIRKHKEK
KRas G12V, sequence (P01116 1-169 isoform P01116-2 G12V): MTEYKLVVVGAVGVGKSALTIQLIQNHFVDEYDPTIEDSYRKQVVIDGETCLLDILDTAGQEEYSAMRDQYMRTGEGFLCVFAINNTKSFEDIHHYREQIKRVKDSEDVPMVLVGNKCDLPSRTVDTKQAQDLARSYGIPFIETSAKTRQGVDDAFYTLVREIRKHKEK
KRas G12R, sequence (P01116 1-169 isoform P01116-2 G12R): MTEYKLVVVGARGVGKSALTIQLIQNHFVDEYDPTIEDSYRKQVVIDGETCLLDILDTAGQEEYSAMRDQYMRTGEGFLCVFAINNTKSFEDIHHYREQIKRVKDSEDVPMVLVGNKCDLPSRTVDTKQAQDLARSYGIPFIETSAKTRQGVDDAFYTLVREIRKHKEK
KRas WT, sequence (P01116 1-169 isoform P01116-2): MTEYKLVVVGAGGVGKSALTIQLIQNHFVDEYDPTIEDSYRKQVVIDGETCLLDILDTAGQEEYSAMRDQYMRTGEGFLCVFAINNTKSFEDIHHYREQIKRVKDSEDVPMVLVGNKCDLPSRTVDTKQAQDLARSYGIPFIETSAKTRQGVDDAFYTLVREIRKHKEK

As for `CCc1c(F)ccc2cc(O)cc(-c3ncc4c(NC[C@H]5COC[C@H]5O)nc(OC[C@@]56CCCN5C[C@H](F)C6)nc4c3F)c12` (single isomer, unassigned) [Example 492], the half-maximal inhibitory concentration (IC50) is 3.52 µM in test [1]; 0.015 µM in test [2]; 0.014 µM in [3]; 0.084 µM in test [4]; 0.254 µM in [5]; no less than 10 µM in test [6].

Turning to `CCc1c(F)ccc2cc(O)cc(-c3ncc4c(NC[C@@H]5COC[C@@H]5O)nc(OC[C@@]56CCCN5C[C@H](F)C6)nc4c3F)c12` (single isomer, unassigned) [Example 493], the concentration for half-maximal inhibition (IC50) in [1] is no less than 10 µM; in test [2] it was 0.011 µM; in [3] it was 0.009 µM; in [4], 0.13 µM; in test [5], 0.622 µM; in [6], no less than 10 µM.

On to `CCc1c(F)ccc2cc(O)cc(-c3ncc4c(N5C[C@@H]6C(CO)NC(=O)[C@@H]6C5)nc(OC[C@@]56CCCN5C[C@H](F)C6)nc4c3F)c12` (stereo in doubt) [Example 488, (3R,3aR,6aS)-5-(7-(8-ethyl-7-fluoro-3-hydroxynaphthalen-1-yl)-8-fluoro-2-(((2R,7aS)-2-fluorotetrahydro-1H-pyrrolizin-7a(5H)-yl)methoxy)pyrido[4,3-d]pyrimidin-4-yl)-3-(hydroxymethyl)hexahydropyrrolo[3,4-c]pyrrol-1(2H)-one], for which the half-inhibitory concentration (IC50) in [1] is no less than 10 µM; in test [2], 0.027 µM; in test [3] it was 0.051 µM; in [4] it was 0.022 µM; in test [5], no less than 10 µM; in test [6], no less than 10 µM.

As for `CCc1c(F)ccc2cc(O)cc(-c3ncc4c(N5CCC[C@](C)(O)C5)nc(OC[C@@]56CCCN5C[C@H](F)C6)nc4c3F)c12` [Example 4], the IC50 in test [6] is no less than 10 µM.

Consider `O=C1CC2(CCCN(c3nc(OCC45CCCN4CCC5)nc4c(F)c(-c5cccc6cccc(F)c56)ncc34)C2)CN1` (centres unmarked) [Example 20, 7-(8-fluoro-7-(8-fluoronaphthalen-1-yl)-2-((hexahydro-1H-pyrrolizin-7a-yl)methoxy)pyrido[4,3-d]pyrimidin-4-yl)-2,7-diazaspiro[4.5]decan-3-one], for which the 50% inhibitory concentration (IC50) in test [7] is 2.98 µM; in test [2], 3.4 µM; in test [8], 2.78 µM; in test [3], 7.39 µM; in test [4] it was 2.39 µM; in test [9], 2.97 µM. The molecule also returned a 50% inhibitory concentration (IC50) in test [10] of 3.18 µM.

Regarding `Fc1c(-c2cccc3cccc(F)c23)ncc2c(Nc3cnc4cnccn34)nc(OCC34CCCN3CCC4)nc12` [Example 34, 8-fluoro-7-(8-fluoronaphthalen-1-yl)-N-(imidazo[1,2-a]pyrazin-3-yl)-2-((tetrahydro-1H-pyrrolizin-7a(5H)-yl)methoxy)pyrido[4,3-d]pyrimidin-4-amine], the IC50 was 53.5 µM in test [7]; 15 µM in test [2]; 48.7 µM in test [8]; no less than 100 µM in test [3]; 11.1 µM in test [4]; 28.1 µM in [9]. This molecule came in with a 50% inhibitory concentration (IC50) in test [10] of 35 µM.

As to `O=C1NC2(CCCN(c3nc(OCC45CCCN4CCC5)nc4c(F)c(-c5cccc6cccc(F)c56)ncc34)C2)CO1` (centres unmarked) [Example 227, 7-(8-fluoro-7-(8-fluoronaphthalen-1-yl)-2-((hexahydro-1H-pyrrolizin-7a-yl)methoxy)pyrido[4,3-d]pyrimidin-4-yl)-3-oxa-1,7-diazaspiro[4.5]decan-2-one], the IC50 was found to be 2.43 µM in [2]; 3.06 µM in test [3]; 1.24 µM in test [4]; 3.39 µM in test [9]; 2.72 µM in test [10].

For the molecule `CC(Nc1nc(OCC23CCCN2CCC3)nc2c(F)c(-c3cccc4cccc(F)c34)ncc12)c1c[nH]c2ncccc12` (centres unmarked) [Example 229, N-(1-(1H-pyrrolo[2,3-b]pyridin-3-yl)ethyl)-8-fluoro-7-(8-fluoronaphthalen-1-yl)-2-((tetrahydro-1H-pyrrolizin-7a(5H)-yl)methoxy)pyrido[4,3-d]pyrimidin-4-amine], the IC50 in test [2] was determined as 3.12 µM; in test [3] it was 2.12 µM; in test [4], 85.3 µM; in test [9], 36.8 µM; in [10], 4.72 µM.

As for `CNc1cc2n(n1)CCCN(c1nc(OCC34CCCN3CCC4)nc3c(F)c(-c4cccc5cccc(F)c45)ncc13)C2` [Example 263, 5-(8-fluoro-7-(8-fluoronaphthalen-1-yl)-2-((tetrahydro-1H-pyrrolizin-7a(5H)-yl)methoxy)pyrido[4,3-d]pyrimidin-4-yl)-N-methyl-5,6,7,8-tetrahydro-4H-pyrazolo[1,5-a][1,4]diazepin-2-amine], the IC50 came to 3.55 µM in test [7]; 4.03 µM in test [2]; 4.94 µM in [8]; 3.04 µM in [3]; 1.98 µM in test [4]; 9.09 µM in test [9]. Besides, 4.41 µM corresponded to half-maximal inhibition in test [10] (IC50).

Take `O=C1CC2(CCCN(c3nc(OCC45CCCN4CCC5)nc4c(F)c(-c5cccc6cccc(F)c56)ncc34)C2)C(=O)N1` (centres unmarked) [Example 265, 7-(8-fluoro-7-(8-fluoronaphthalen-1-yl)-2-((hexahydro-1H-pyrrolizin-7a-yl)methoxy)pyrido[4,3-d]pyrimidin-4-yl)-2,7-diazaspiro[4.5]decane-1,3-dione]: the IC50 in test [7] was found to be 2.51 µM; in [2], 2.74 µM; in test [8] it was 3.02 µM; in test [3], 1.92 µM; in [4], 5.31 µM; in test [9], 2.46 µM. The molecule also gave an IC50 in test [10] of 3.31 µM.

For `O=C1NC(=O)C2(CCCCN(c3nc(OCC45CCCN4CCC5)nc4c(F)c(-c5cccc6cccc(F)c56)ncc34)C2)N1` (centres unmarked) [Example 267, 7-(8-fluoro-7-(8-fluoronaphthalen-1-yl)-2-((hexahydro-1H-pyrrolizin-7a-yl)methoxy)pyrido[4,3-d]pyrimidin-4-yl)-1,3,7-triazaspiro[4.6]undecane-2,4-dione], the IC50 in test [7] turned out to be 2.07 µM; in test [2], 1.71 µM; in test [8], 2.5 µM; in test [3], 1.72 µM; in test [4] it was 4.37 µM; in test [9], 1.56 µM. The molecule further registered an IC50 in test [10] of 2.25 µM.

With `OCC1CN(c2nc(OCC34CCCN3CCC4)nc3c(F)c(-c4cccc5cccc(F)c45)ncc23)CCCO1` (centres unmarked) [Example 269, (4-(8-fluoro-7-(8-fluoronaphthalen-1-yl)-2-((hexahydro-1H-pyrrolizin-7a-yl)methoxy)pyrido[4,3-d]pyrimidin-4-yl)-1,4-oxazepan-2-yl)methanol], the concentration for half-maximal inhibition (IC50) turned out to be 0.725 µM in test [7]; 1 µM in test [2]; 1.05 µM in test [8]; 1.06 µM in test [3]; 1.91 µM in test [4]; 1.06 µM in [9]. The IC50 in test [10] was found to be 0.608 µM.

As for `NC(=O)C1COCCN(c2nc(OCC34CCCN3CCC4)nc3c(F)c(-c4cccc5cccc(F)c45)ncc23)C1` (centres unmarked) [Example 270, 4-(8-fluoro-7-(8-fluoronaphthalen-1-yl)-2-((hexahydro-1H-pyrrolizin-7a-yl)methoxy)pyrido[4,3-d]pyrimidin-4-yl)-1,4-oxazepane-6-carboxamide], the IC50 in test [2] is 2.1 µM; in [3], 7.59 µM; in test [4], 2.63 µM; in [9], 4.19 µM; in test [10], 2.83 µM.

On to `O=C1NC(=O)C2(COCCN(c3nc(OCC45CCCN4CCC5)nc4c(F)c(-c5cccc6cccc(F)c56)ncc34)C2)N1` (centres unmarked) [Example 272, 10-(8-fluoro-7-(8-fluoronaphthalen-1-yl)-2-((hexahydro-1H-pyrrolizin-7a-yl)methoxy)pyrido[4,3-d]pyrimidin-4-yl)-7-oxa-1,3,10-triazaspiro[4.6]undecane-2,4-dione], for which the half-inhibitory concentration (IC50) in [7] came out at 0.132 µM; in [2], 0.13 µM; in test [8], 0.138 µM; in test [3] it was 0.12 µM; in test [4], 0.194 µM; in test [9], 0.116 µM. The molecule further displayed a concentration for half-maximal inhibition (IC50) in [10] of 0.141 µM.

Regarding `Cc1c(N)nn2c1CN(c1nc(OCC34CCCN3CCC4)nc3c(F)c(-c4cccc5cccc(F)c45)ncc13)CCC2` [Example 278, 5-(8-fluoro-7-(8-fluoronaphthalen-1-yl)-2-((hexahydro-1H-pyrrolizin-7a-yl)methoxy)pyrido[4,3-d]pyrimidin-4-yl)-3-methyl-5,6,7,8-tetrahydro-4H-pyrazolo[1,5-a][1,4]diazepin-2-amine], the IC50 in test [2] came out at 1.99 µM; in test [3], 1.86 µM; in test [4], 0.801 µM; in test [9], 3.67 µM.

For `CCc1c(F)ccc2cc(O)cc(-c3ncc4c(NCCN5CCNC5=O)nc(OC[C@@]56CCCN5C[C@H](F)C6)nc4c3F)c12` [Example 372, 1-(2-((7-(8-ethyl-7-fluoro-3-hydroxynaphthalen-1-yl)-8-fluoro-2-(((2R,7aS)-2-fluorotetrahydro-1H-pyrrolizin-7a(5H)-yl)methoxy)pyrido[4,3-d]pyrimidin-4-yl)amino)ethyl)imidazolidin-2-one], the 50% inhibitory concentration (IC50) in test [2] is 0.005 µM; in test [3], 0.013 µM; in test [4], 0.056 µM; in test [5], 0.66 µM; in test [6], no less than 10 µM.

In general, IC50 refers to the point on the concentration scale where inhibition reaches its midpoint.
